Legend:
HIV-1 RT = HIV-1 RT (Human immunodeficiency virus type 1 group M subtype B, UniProt P04585); assay: HIV-1 Reverse Transcriptase Assay (RNA-dependent DNA polymerase activity, SPA); format: biochemical; details: 30° C., 30 min, 10% DMSO
Protocol: RNA-dependent DNA polymerase activity was measured using a biotinylated primer oligonucleotide and tritiated dNTP substrate. Newly synthesized DNA was quantified by capturing the biotinylated primer molecules on streptavidin coated Scintillation Proximity Assay (SPA) beads (Amersham). The sequences of the polymerase assay substrate were: 18 nt DNA primer, 5′-Biotin/GTC CCT GTT CGG GCG CCA-3′; 47 nt RNA template, 5′-GGGUCUCUCUGGUUAGACCACUCUAGCAGUGGCGCCCGAACAGGGAC-3′. The biotinylated DNA primer was obtained from the Integrated DNA Technologies Inc. and the RNA template was synthesized by Dharmacon. The DNA polymerase assay (final volume 50 μl) contained 32 nM biotinylated DNA primer, 64 nM RNA substrate, dGTP, dCTP, dTTP (each at 5 μM), 103 nM [^3H]-dATP (specific activity=[…]), in 45 mM Tris-HCl, pH 8.0, 45 mM NaCl, 2.7 mM Mg(CH3COO)2, 0.045% Triton X-100 w/v, 0.9 mM EDTA. The reactions contained 5 ul of serial compound dilutions in 100% DMSO for IC50 determination and the final concentrations of DMSO were 10%. Reactions were initiated by the addition of 30 μl of the HIV-RT enzyme (final concentrations of 1-3 nM). Protein concentrations were adjusted to provide linear product formation for at least 30 min of incubation. After incubation at 30° C. for 30 min, the reaction was quenched by addition of 50 μl of 200 mM EDTA (pH 8.0) and […] SA-PVT SPA beads (Amersham, RPNQ0009, reconstituted in 20 mM Tris-HCl, pH 8.0, 100 mM EDTA and 1% BSA). The beads were left to settle overnight and the SPA signals were counted in a 96-well top counter-NXT (Packard).

Cc1cc(=O)[nH]c(=O)n1Cc1ccc(Br)c(Oc2cc(Cl)cc(C#N)c2)c1F [Compound I-16, 3-[6-Bromo-2-fluoro-3-(6-methyl-2,4-dioxo-3,4-dihydro-2H-pyrimidin-1-ylmethyl)-phenoxy]-5-chloro-benzonitrile]
IC50 (HIV-1 RT): 0.0261 µM
melting point: 227 to 228 °C

Cc1cn(Cc2ccc(Br)c(Oc3cc(Cl)cc(C#N)c3)c2F)c(=S)[nH]c1=O [Compound I-23, 3-[6-Bromo-2-fluoro-3-(5-methyl-4-oxo-2-thioxo-3,4-dihydro-2H-pyrimidin-1-ylmethyl)-phenoxy]-5-chloro-benzonitrile]
IC50 (HIV-1 RT): 0.0055 µM
melting point: 225 to 226 °C

N#Cc1cc(Cl)cc(Oc2c(Br)ccc(CN3CCC(=O)NC3=O)c2F)c1 [Compound I-1, 3-[6-Bromo-3-(2,4-dioxo-tetrahydro-pyrimidin-1-ylmethyl)-2-fluoro-phenoxy]-5-chloro-benzonitrile]
IC50 (HIV-1 RT): 0.0287 µM
melting point: 161.5 to 163 °C

CCc1cn(Cc2ccc(Br)c(Oc3cc(Cl)cc(C#N)c3)c2F)c(=O)[nH]c1=O [Compound I-5, 3-[6-Bromo-3-(5-ethyl-2,4-dioxo-3,4-dihydro-2H-pyrimidin-1-ylmethyl)-2-fluoro-phenoxy]-5-chloro-benzonitrile]
IC50 (HIV-1 RT): 0.0016 µM
melting point: 224.6 to 225.6 °C

C[C@@H]1C(=O)NC(=O)N1Cc1ccc(Br)c(Oc2cc(Cl)cc(C#N)c2)c1F [Compound I-21, 3-[6-Bromo-2-fluoro-3-((R)-5-methyl-2,4-dioxo-imidazolidin-1-ylmethyl)-phenoxy]-5-chloro-benzonitrile]
IC50 (HIV-1 RT): 0.0169 µM
melting point: 119 to 120 °C

CC1CN(Cc2ccc(Br)c(Oc3cc(Cl)cc(C#N)c3)c2F)C(=O)NC1=O (stereo not drawn) [Compound I-29, 3-[6-Bromo-2-fluoro-3-(5-methyl-2,4-dioxo-tetrahydro-pyrimidin-1-ylmethyl)-phenoxy]-5-chloro-benzonitrile]
IC50 (HIV-1 RT): 0.0858 µM
melting point: 227.8 to 228.6 °C

N#Cc1cc(Cl)cc(Oc2c(Br)ccc(Cn3cc(C#N)c(=O)[nH]c3=O)c2F)c1 [Compound I-15, 1-[4-Bromo-3-(3-chloro-5-cyano-phenoxy)-2-fluoro-benzyl]-2,4-dioxo-1,2,3,4-tetrahydro-pyrimidine-5-carbonitrile]
IC50 (HIV-1 RT): 0.0612 µM
melting point: 246.9 to 247.8 °C

N#Cc1cc(Cl)cc(Oc2c(Br)ccc(Cn3cc(O)c(=O)[nH]c3=O)c2F)c1 [Compound I-30, 3-[6-Bromo-2-fluoro-3-(5-hydroxy-2,4-dioxo-3,4-dihydro-2H-pyrimidin-1-ylmethyl)-phenoxy]-5-chloro-benzonitrile]
IC50 (HIV-1 RT): 0.0345 µM
melting point: 238 to 240 °C

COc1cn(Cc2ccc(Br)c(Oc3cc(Cl)cc(C#N)c3)c2F)c(=O)[nH]c1=O [Compound I-19, 3-[6-Bromo-2-fluoro-3-(5-methoxy-2,4-dioxo-3,4-dihydro-2H-pyrimidin-1-ylmethyl)-phenoxy]-5-chloro-benzonitrile]
IC50 (HIV-1 RT): 0.0029 µM
melting point: 190 to 191.1 °C

CCc1ccc(Cn2cc(Cl)c(=O)[nH]c2=O)c(F)c1Oc1cc(Cl)cc(C#N)c1 [Compound I-26, 3-Chloro-5-[3-(5-chloro-2,4-dioxo-3,4-dihydro-2H-pyrimidin-1-ylmethyl)-6-ethyl-2-fluoro-phenoxy]-benzonitrile]
IC50 (HIV-1 RT): 0.0014 µM

CN1C(=O)NC(=O)C1Cc1ccc(Br)c(Oc2cc(Cl)cc(C#N)c2)c1F (stereo not drawn) [Compound I-32, 3-[6-Bromo-2-fluoro-3-(3-methyl-2,5-dioxo-imidazolidin-4-ylmethyl)-phenoxy]-5-chloro-benzonitrile]
IC50 (HIV-1 RT): 0.0063 µM

CCc1cn(Cc2ccc(Br)c(Oc3cc(C#N)cc(C#N)c3)c2F)c(=O)[nH]c1=O [Compound I-10, 5-[6-Bromo-3-(5-ethyl-2,4-dioxo-3,4-dihydro-2H-pyrimidin-1-ylmethyl)-2-fluoro-phenoxy]-isophthalonitrile]
IC50 (HIV-1 RT): 0.0135 µM
